From ChEMBL document CHEMBL3868634, “Animal models in the pharmacokinetic/pharmacodynamic evaluation of antimicrobial agents” (Bioorg Med Chem, 2016)

Assay: Ratio of AUC in mouse epithelial lining fluid to AUC in mouse serum
Type: ADME
Conditions: read-out: Ratio AUC

Structure (SMILES): CC(C)(O/N=C(\C(=O)N[C@@H]1C(=O)N2C(C(=O)[O-])=C(C[n+]3ccccc3)CS[C@H]12)c1csc(N)n1)C(=O)O [CEFTAZIDIME]
- Kp: 0.201
